{
  "source": "paper PMC10354759",
  "about": "“Preclinical assessment of IRDye800CW‐labeled gastrin‐releasing peptide receptor‐targeting peptide for near infrared‐II imaging of brain malignancies” (Bioengineering & Translational Medicine, 2023)",
  "key": {"[1]": {"tested_on": "glioblastoma (GL261 cells)", "experiment": "Histological colocalization of fluorescence signal and tumor (Manders' coefficients)", "format": "in vivo, C57BL/6 mouse", "details": "120 mg/kg intraperitoneally, 4 h post-injection", "experimental": "We equally analyzed the histological colocalization of the fluorescence signal and cancer cells. […] Frozen sectioning was performed after fixation of the brain specimen in Tissue‐Tek O.C.T. using a cryostat. The fixed tissue was sliced axially at 30 μm thickness and mounted on a slide for immediate fluorescence micro imaging with the BZ‐X800. Multiple slices were performed across the tumor. Subsequently, we stained some slices with H&E according to common standard procedure, and imaged them with BZ‐X800 or Vectra Polaris. […] The mouse was euthanized and prepared for section imaging at 4 h post‐injection. The 5‐ALA emission was collected with an excitation filter (545 ± 25 nm), dichromatic mirror (565 nm), and a barrier filter (605 ± 70 nm). Quantification of the colocalization of tumor on H&E staining, 5‐ALA, and NIR were performed with the JACoP plugin for ImageJ using the Manders' coefficients.[28] Values of these coefficients range from 0 to 1 and express the fraction of intensity in a channel located in pixels where there is above threshold intensity in the other color channel."}, "[2]": {"details": "cited from earlier work; for brightness (NIR-I) higher than ICG: 100 μM", "from_the_text": "Near‐infrared fluorescence imaging technology is widely used for FGS due to its non‐invasive, real‐time, and multi‐dimensional monitoring characteristics. The combination of the reducing photon scattering, light absorption, and tissue autofluorescence provides a clear view deep into the body, capable of extraordinarily high SBR that are only accomplishable when moving from the NIR‐I to NIR‐II region. Because some organic dyes are relatively easy to synthesize, modifiable, and have low biological toxicity, several studies recently explored clinically approved or commercially available NIR‐I cya ..."}, "GRPR of GL261 cell line": {"biological_target": "T1, GRPR of GL261 cell line (Mus musculus, UniProt P21729)", "T1 construct": "host or cells: GL261 (stably expressing firefly luciferase)", "T1 sequence (P21729 whole entry)": "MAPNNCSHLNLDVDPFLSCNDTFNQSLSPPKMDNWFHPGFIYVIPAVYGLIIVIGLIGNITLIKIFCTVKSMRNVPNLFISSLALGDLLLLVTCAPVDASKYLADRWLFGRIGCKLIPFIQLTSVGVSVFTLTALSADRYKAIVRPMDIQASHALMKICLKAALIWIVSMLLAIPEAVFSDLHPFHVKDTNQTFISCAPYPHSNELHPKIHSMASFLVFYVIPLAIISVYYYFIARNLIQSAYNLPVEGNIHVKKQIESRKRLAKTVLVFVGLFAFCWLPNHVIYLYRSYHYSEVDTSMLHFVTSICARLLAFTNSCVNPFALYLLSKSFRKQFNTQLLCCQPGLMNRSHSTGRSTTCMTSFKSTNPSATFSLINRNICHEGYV", "experiment": "Targeted cell imaging (uptake and RM26 blocking)", "format": "cell-based", "details": "500 μM RM26 before 100 μM IRDye800-RM26, imaged after 1 h", "from_the_text": "Subsequently, we washed the cells with 1 × PBS 3 times and scanned then using fluorescence microscopy (BZ‐X800; KEYENCE, Japan). The NIR emission was collected with an excitation filter (775 ± 50 nm), dichromatic mirror (810 nm), and a barrier filter (845 ± 55 nm)."}},
  "note": "Read-outs that look alike come from different tables or passages of the source.",
  "data": [
    {"compound": "NCC(=O)CCC(=O)O", "note": "[5-ALA, 5‐aminolevulinic acid]", "values": [
      {"measurement": "fraction of glioblastoma on 5-ALA overlapping tumor on H&E (Manders' coefficient)", "setting": "[1]", "value": 99.8, "unit": "%"},
      {"measurement": "fraction of tumor on H&E overlapping tumor on 5-ALA (Manders' coefficient)", "setting": "[1]", "value": 63.8, "unit": "%"}
    ]},
    {"compound": "CC1(C)C(/C=C/C=C/C=C/C=C2\\N(CCCCS(=O)(=O)O)c3ccc4ccccc4c3C2(C)C)=[N+](CCCCS(=O)(=O)[O-])c2ccc3ccccc3c21", "note": "[ICG, indocyanine green]", "values": [
      {"measurement": "brightness relative to IRDye800CW", "setting": "[2]; bovine blood, 0.01 mg/mL", "value": 12.3, "unit": "times"},
      {"measurement": "concentration with maximum fluorescence intensity", "setting": "[2]; in BSA", "value": "10000 to 20000", "unit": "ng/mL"}
    ]},
    {"compound": "CC1(C)C(/C=C/C2=C(Oc3ccc(S(=O)(=O)O)cc3)C(=C/C=C3/N(CCCCS(=O)(=O)O)c4ccc(S(=O)(=O)[O-])cc4C3(C)C)/CCC2)=[N+](CCCCCC(=O)O)c2ccc(S(=O)(=O)O)cc21", "note": "[IRDye800]", "values": [
      {"measurement": "brightness (NIR-I) higher than ICG", "setting": "[2]; FBS", "value": 1.8, "unit": "fold"},
      {"measurement": "quantum yield (QY)", "setting": "[2]; NIR-I, serum", "value": 12, "unit": "%"},
      {"measurement": "brightness (NIR-I) higher than ICG", "setting": "[2]; PBS", "value": 3.3, "unit": "fold"}
    ]},
    {"compound": "D‐Phe‐Gln‐Trp‐Ala‐Val‐Gly‐His‐Sta‐Leu‐NH2 [RM26]", "values": [
      {"measurement": "effect of RM26 blocking on IRDye800-RM26 uptake", "setting": "GRPR of GL261 cell line", "value": "reduced"}
    ]}
  ]
}
